Key:
IRAK4 = biological target: T1, IRAK4 (Homo sapiens, UniProt Q9NWZ3); experiment: IRAK4 Inhibition Assay; assay type: biochemical; conditions: ATP 500 μM; fluoresceinated peptide 1.5 μM; IRAK4 0.6 nM; 60 min room temperature; Caliper LABCHIP
T1 sequence (Q9NWZ3 1-460): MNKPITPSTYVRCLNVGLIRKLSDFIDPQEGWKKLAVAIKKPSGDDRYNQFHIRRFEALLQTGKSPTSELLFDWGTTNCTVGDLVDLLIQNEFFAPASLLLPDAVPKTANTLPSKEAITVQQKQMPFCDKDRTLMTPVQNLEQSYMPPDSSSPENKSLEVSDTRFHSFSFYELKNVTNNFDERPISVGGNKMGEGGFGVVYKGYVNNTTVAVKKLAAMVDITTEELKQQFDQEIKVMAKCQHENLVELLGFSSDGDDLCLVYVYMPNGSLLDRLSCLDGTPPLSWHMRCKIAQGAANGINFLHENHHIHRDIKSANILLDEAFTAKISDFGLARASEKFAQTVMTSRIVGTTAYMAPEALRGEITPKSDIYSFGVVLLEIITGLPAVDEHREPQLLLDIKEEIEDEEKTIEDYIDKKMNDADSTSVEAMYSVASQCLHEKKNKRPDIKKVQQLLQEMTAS
Procedure: The assays were performed in U-bottom 384-well plates. The final assay volume was 30 μL prepared from 15 μL additions of enzyme and substrates (fluoresceinated peptide and ATP) and test compounds in assay buffer (20 mM HEPES pH 7.2, 10 mM MgCl2, 0.015% Brij 35 and 4 mM DTT). The reaction was initiated by the combination of IRAK4 with substrates and test compounds. The reaction mixture was incubated at room temperature for 60 min. and terminated by adding 45 μL of 35 mM EDTA to each sample. The reaction mixture was analyzed on the Caliper LABCHIP® 3000 (Caliper, Hopkinton, MA) by electrophoretic separation of the fluorescent substrate and phosphorylated product. Inhibition data were calculated by comparison to no enzyme control reactions for 100% inhibition and vehicle-only reactions for 0% inhibition. The final concentrations of reagents in the assays are ATP, 500 μM; FL-IPTSPITTTYFFFKKK peptide 1.5 μM; IRAK4, 0.6 nM; and DMSO, 1.6%.

Human whole blood = experiment: IRAK4 Whole Blood Assay; assay type: cell-based; conditions: stimulated with TLR2 agonist lipoteichoic acid 10 μg/mL for 5 hours, IL-6 levels
Procedure: Human whole blood containing the anti-coagulant ACD-A was plated in 384-well plate (25 μL/well) and incubated with compounds for 60 minutes at 37° C. in a 5% CO2 incubator. The blood was stimulated with a TLR2 agonist, 10 μg/mL final concentration of lipoteichoic acid (Invivogen, San Diego, CA) in 25 μL RPMI (Gibco) for 5 hours in a 5% CO2 incubator. At the end of the incubation, plates were centrifuged at 2300 rpm for 5 minutes. Supernatants were harvested and analyzed for IL-6 levels by Flow Cytometry beads assay (BD Biosciences, San Jose, CA).

SMILES | IC50 (IRAK4) [nM] | EC50 (Human whole blood) [nM]
CC(C)Nc1c(C(=O)N[C@H]2CC[C@H](O)CC2)cnc2c1[nH]c1cc(C#N)ccc12 [Example 10, 7-cyano-N-((1R,4R)-4-hydroxycyclohexyl)-4-(isopropylamino)-5H-pyrido[3,2-b]indole-3-carboxamide] | 12 | 2890
CC(C)(O)[C@H](F)CNC(=O)c1cnc2c([nH]c3cc(C#N)ccc32)c1NC1COC1 [Example 22, (R)-7-cyano-N-(2-fluoro-3-hydroxy-3-methylbutyl)-4-(oxetanylamino)-5H-pyrido[3,2-b]indole-3-carboxamide] | 2.1 | 230
CC(C)Nc1c(-c2cc(C3CCNCC3)no2)cnc2c1[nH]c1cc(C#N)ccc12 [Example 76, 4-(isopropylamino)-3-(3-(piperidin-4-yl)isoxazol-5-yl)-5H-pyrido[3,2-b]indole-7-carbonitrile] | 2.3 | 820
CCNc1c(C(=O)NCCC2CCCN2)cnc2c1[nH]c1cc(C#N)ccc12 (stereo not drawn) [Example 57, 7-cyano-4-(ethylamino)-N-(2-(pyrrolidin-2-yl)ethyl)-5H-pyrido[3,2-b]indole-3-carboxamide] | 18 | 610
CC(=O)N[C@H]1CC[C@H](NC(=O)c2cnc3c([nH]c4cc(C#N)ccc43)c2NC(C)C)CC1 [Example 13, N-((1R,4R)-4-acetamidocyclohexyl)-7-cyano-4-(isopropylamino)-5H-pyrido[3,2-b]indole-3-carboxamide] | 3.7 | 2210
CC(C)Nc1c(C(=O)N[C@H]2CC[C@H](N)CC2)cnc2c1[nH]c1cc(C#N)ccc12 [Example 12, N-((1R,4R)-4-aminocyclohexyl)-7-cyano-4-(isopropylamino)-5H-pyrido[3,2-b]indole-3-carboxamide] | 8.6 | 2720
CC(C)Nc1c(C(=O)NC2CCN(S(C)(=O)=O)CC2)cnc2c1[nH]c1cc(C#N)ccc12 [Example 63, 7-cyano-4-(isopropylamino)-N-(1-(methylsulfonyl)piperidin-4-yl)-5H-pyrido[3,2-b]indole-3-carboxamide] | 7.1 | > 20000
CC(C)(O)CCNC(=O)c1cnc2c([nH]c3cc(C#N)ccc32)c1NC1CC1 [Example 46, 7-cyano-4-(cyclopropylamino)-N-(3-hydroxy-3-methylbutyl)-5H-pyrido[3,2-b]indole-3-carboxamide] | 2.6 | 740
CCNc1c(C(=O)NCCC2CCCCN2)cnc2c1[nH]c1cc(C#N)ccc12 (stereo not drawn) [Example 58, 7-cyano-4-(ethylamino)-N-(2-(piperidin-2-yl)ethyl)-5H-pyrido[3,2-b]indole-3-carboxamide] | 24 | 
CC(C)Nc1c(C(=O)NC2CCOCC2)cnc2c1[nH]c1cc(C#N)ccc12 [Example 11, 7-cyano-4-(isopropylamino)-N-(tetrahydro-2H-pyran-4-yl)-5H-pyrido[3,2-b]indole-3-carboxamide] | 27 | 
CC(C)(O)[C@H](F)CNC(=O)c1cnc2c([nH]c3cc(C#N)ccc32)c1NC1CCN(S(C)(=O)=O)CC1 [Example 64, (R)-7-cyano-N-(2-fluoro-3-hydroxy-3-methylbutyl)-4-((1-(methylsulfonyl)piperidin-4-yl)amino)-5H-pyrido[3,2-b]indole-3-carboxamide] | 53 | 
CC(C)Nc1c(-c2cc(C3CNCCO3)no2)cnc2c1[nH]c1cc(C#N)ccc12 (stereo not drawn) [Example 78, 4-(isopropylamino)-3-(3-(morpholin-2-yl)isoxazol-5-yl)-5H-pyrido[3,2-b]indole-7-carbonitrile] | 26 | 
COC(=O)N[C@H]1C[C@H](NC(=O)c2cnc3c([nH]c4cc(C#N)ccc43)c2NC(C)C)C1 [Example 50, methyl ((1R,3R)-3-(7-cyano-4-(isopropylamino)-5H-pyrido[3,2-b]indole-3-carboxamido)cyclobutyl)carbamate] | 33 | 
CC(C)Nc1c(C(=O)NC[C@@H](F)C(C)(C)O)cnc2c1[nH]c1cc(-c3cn[nH]c3)ccc12 [Example 67, (R)—N-(2-fluoro-3-hydroxy-3-methylbutyl)-4-(isopropylamino)-7-(1H-pyrazol-4-yl)-5H-pyrido[3,2-b]indole-3-carboxamide] | 30 | 
CCCc1nc(-c2cnc3c([nH]c4cc(C#N)ccc43)c2NC(C)C)n[nH]1 [Example 71, 4-(isopropylamino)-3-(5-propyl-1H-1,2,4-triazol-3-yl)-5H-pyrido[3,2-b]indole carbonitrile] | 500 | 

More lines, now with the values ahead:

IC50 (IRAK4) [nM] | EC50 (Human whole blood) [nM] | SMILES
3.5 | 1500 | CC(O)CCNC(=O)c1cnc2c([nH]c3cc(C#N)ccc32)c1NC(C)C (stereo not drawn) [Example 25, 7-cyano-N-(3-hydroxybutyl)-4-(isopropylamino)-5H-pyrido[3,2-b]indole-3-carboxamide]
9.1 | 3320 | CC(C)(O)CCNC(=O)c1cnc2c([nH]c3cc(C#N)ccc32)c1NCC(F)F [Example 36, 7-cyano-4-((2,2-difluoroethyl)amino)-N-(3-hydroxy-3-methylbutyl)-5H-pyrido[3,2-b]indole-3-carboxamide]
13 | 4730 | COCCNC(=O)c1cnc2c([nH]c3cc(C#N)ccc32)c1NC(C)C [Example 17, 7-cyano-4-(isopropylamino)-N-(2-methoxyethyl)-5H-pyrido[3,2-b]indole-3-carboxamide]
3.9 | > 20000 | CC(C)Nc1c(C(=O)N[C@H]2C[C@H](C(C)(C)O)C2)cnc2c1[nH]c1cc(C#N)ccc12 [Example 39, 7-cyano-N-((1R,3R)-3-(2-hydroxypropan-2-yl)cyclobutyl)-4-(isopropylamino)-5H-pyrido[3,2-b] indole-3-carboxamide]
17 | 8170 | CC(C)Nc1c(C(=O)NCc2nccs2)cnc2c1[nH]c1cc(C#N)ccc12 [Example 18, 7-cyano-4-(isopropylamino)-N-(thiazol-2-ylmethyl)-5H-pyrido[3,2-b]indole-3-carboxamide]
2.1 | 1340 | CC(C)CCNC(=O)c1cnc2c([nH]c3cc(C#N)ccc32)c1NC(C)C [Example 21, 7-cyano-N-isopentyl-4-(isopropylamino)-5H-pyrido[3,2-b] indole carboxamide]
5.3 | 3380 | C[C@@H](CO)Nc1c(C(=O)NCCC(C)(C)O)cnc2c1[nH]c1cc(C#N)ccc12 [Example 30, (S)-7-cyano-N-(3-hydroxy-3-methylbutyl)-4-((1-hydroxypropan-2-yl)amino)-5H-pyrido[3,2-b]indole-3-carboxamide]
16 | 1450 | Cc1cc(CNC(=O)c2cnc3c([nH]c4cc(C#N)ccc43)c2NC(C)C)on1 [Example 15, 7-cyano-4-(isopropylamino)-N-((3-methylisoxazol-5-yl)methyl)-5H-pyrido[3,2-b]indole-3-carboxamide]
7.2 | > 20000 | CC(C)Nc1c(C(=O)NCC2CCS(=O)(=O)C2)cnc2c1[nH]c1cc(C#N)ccc12 (stereo not drawn) [Example 61, 7-cyano-N-((1,1-dioxidotetrahydrothiophen-3-yl)methyl)-4-(isopropylamino)-5H-pyrido[3,2-b]indole-3-carboxamide]
120 |  | CC(C)Nc1c(C(=O)N[C@H]2C[C@@H](O)C2)cnc2c1[nH]c1cc(C#N)ccc12 [Example 24, 7-cyano-N-((1s,3s)-3-hydroxycyclobutyl)-4-(isopropylamino)-5H-pyrido[3,2-b]indole-3-carboxamide]
330 |  | CC(C)Nc1c(C(=O)NCC(C)(C)CO)cnc2c1[nH]c1cc(C#N)ccc12 [Example 9, 7-cyano-N-(3-hydroxy-2,2-dimethylpropyl)-4-(isopropylamino)-5H-pyrido[3,2-b]indole-3-carboxamide]
3.3 |  | CC(C)Nc1c(C(=O)NCCC(C)(C)N)cnc2c1[nH]c1cc(C#N)ccc12 [Example 52, N-(3-amino-3-methylbutyl)-7-cyano-4-(isopropylamino)-5H-pyrido[3,2-b]indole-3-carboxamide]
14 |  | CC(C)(O)CCNC(=O)c1cnc2c([nH]c3cc(C#N)ccc32)c1NCC(F)(F)F [Example 37, 7-cyano-N-(3-hydroxy-3-methylbutyl)-4-((2,2,2-trifluoroethyl)amino)-5H-pyrido[3,2-b]indole-3-carboxamide]
